From ChEMBL document CHEMBL1139550, “1-Acyl-1H-[1,2,4]triazole-3,5-diamine analogues as novel and potent anticancer cyclin-dependent kinase inhibitors: synthesis and evaluation of biological activities” (J Med Chem, 2005)
pIC50: −log10 of the molar value. Several values for one entry are separate records, joined by “and”; a condition that tells them apart may be missing. Equal entries are not always repeated. Blank lines part the entries; values can stand above or below the molecule they belong to.

Legend:
[1] = target: Cyclin-dependent kinase 1/cyclin B (Homo sapiens, UniProt P06493); experiment: Inhibition of Cyclin B-cyclin-dependent kinase 1; format: protein-complex assay
[2] = test system: PC-3; experiment: In vitro inhibitory concentration against cell proliferation in human PC-3 (prostate adenocarcinoma) tumor cells; format: functional, cell-based
[3] = test system: HCT-116; experiment: In vitro inhibitory concentration against cell proliferation in human HCT116 (colon carcinoma) tumor cells; format: functional, cell-based
[4] = test system: HeLa; experiment: In vitro inhibitory concentration against cell proliferation in human HeLa (cervical adenocarcinoma) tumor cells; format: functional, cell-based
[5] = test system: MDA-MB-231; experiment: In vitro inhibitory concentration against cell proliferation in human MDA-MB-231 (breast carcinoma) tumor cells; format: functional, cell-based
[6] = test system: A-375; experiment: In vitro inhibitory concentration against cell proliferation in human A375 (malignant melanoma),tumor cells; format: functional, cell-based
[7] = test system: MDA-MB-231; experiment: In vitro inhibitory concentration against cell proliferation in various human MDA-MB-231 (breast carcinoma) tumor cells; format: functional, cell-based
[8] = test system: SK-OV-3; experiment: In vitro inhibitory concentration against cell proliferation in human SK-OV-3 (ovarian adenocarcinoma) tumor cells; format: functional, cell-based
[9] = target: Casein kinase II (Homo sapiens, UniProt P19784+P67870+P68400); experiment: Inhibition of Casein kinase-2; format: protein-complex assay
[10] = Inhibition of Platelet-derived growth factor receptor beta
[11] = test system: A-375; experiment: In vitro inhibitory concentration against cell proliferation in human A375 (malignant melanoma) tumor cells; format: functional, cell-based
[12] = target: Cyclin-dependent kinase 2/cyclin A (Homo sapiens, UniProt P24941); experiment: Inhibition of Cyclin-dependent kinase 2-cyclin A; format: protein-complex assay
[13] = target: Cyclin-dependent kinase 4/cyclin D1 (Homo sapiens, UniProt P11802); experiment: Inhibition of Cyclin-dependent kinase 4-cyclin D1; format: protein-complex assay
[14] = target: Fibroblast growth factor receptor 2 (Homo sapiens, UniProt P21802); experiment: Inhibition of Fibroblast growth factor receptor 2
[15] = Inhibition of Protein kinase-C alpha/gamma
[16] = target: Protein kinase C beta type (Homo sapiens, UniProt P05771); experiment: Inhibition of Protein kinase C- beta 2
[17] = target: Glycogen synthase kinase-3 (Homo sapiens, UniProt P49840+P49841); experiment: Inhibition of Glycogen synthase kinase-3; format: protein assay
[18] = Maximum plasma concentration after intravenous administration of 3 mg/kg in nude mice; format: ADME, organism-based; set-up: dose 3 mg/kg, route intravenous; settings: mouse
[19] = Bioavailability in mouse (nude) (dose 30 mg/kg p.o.); format: ADME, organism-based; settings: in vivo, po
[20] = target: Casein kinase I; experiment: Inhibition of human casein kinase-1; format: protein assay
[21] = Inhibition of Protein kinase A
[22] = target: Mitogen-activated protein kinase; ERK1/ERK2 (Homo sapiens, UniProt P27361+P28482); experiment: Inhibition of Mitogen-activated protein kinase 1; format: protein assay
[23] = target: CaM kinase II (Homo sapiens, UniProt Q13557+Q13555+Q13554+Q9UQM7); experiment: Inhibition of [Ca(2+)]/calmodulin dependent kinase; format: protein assay
[24] = Area under concentration time curve after 30 mg/kg of oral dose in nude mice; format: ADME, organism-based; set-up: dose 30 mg/kg, route oral; settings: mouse, in vivo
[25] = Area under concentration time curve after 3 mg/kg […] in nude mice; format: ADME, organism-based; set-up: dose 3 mg/kg; settings: mouse, in vivo
[26] = target: Vascular endothelial growth factor receptor 2 (Homo sapiens, UniProt P35968); experiment: Inhibition of Vascular endothelial growth factor receptor 2
[27] = Maximum plasma concentration after oral administration of 30 mg/kg in nude mice; format: ADME, organism-based; set-up: dose 30 mg/kg, route oral; settings: mouse
[28] = Half life after oral administration of 30 mg/kg; format: ADME, organism-based; set-up: dose 30 mg/kg, route oral; settings: rat, in vivo
[29] = Half life after intravenous administration of 3 mg/kg; format: ADME, organism-based; set-up: dose 3 mg/kg, route intravenous; settings: rat, in vivo
[30] = test system: HeLa; experiment: In vitro inhibitory concentration against cell proliferation in s human HeLa (cervical adenocarcinoma),tumor cells; format: functional, cell-based
[31] = Bioavailability in dog after 10 mg/kg oral dose; format: ADME, organism-based, Canis lupus familiaris; settings: in vivo, read-out: Bioavailabiility
[32] = Area under concentration time curve after 10 mg/kg of oral dose in dog; format: ADME, organism-based, Canis lupus familiaris; set-up: dose 10 mg/kg, route oral; settings: in vivo
[33] = Area under concentration time curve after 1 mg/kg of intravenous dose in dog; format: ADME, organism-based, Canis lupus familiaris; set-up: dose 1 mg/kg, route intravenous; settings: in vivo
[34] = Maximum plasma concentration after oral administration of 30 mg/kg in rat; format: ADME, organism-based; set-up: dose 30 mg/kg, route oral
[35] = test system: Mus musculus; experiment: Mean day of survival after intraperitoneal administration of 100 mg/kg in mice; format: functional
[36] = Bioavailability in rat after 30 mg/kg oral dose; format: ADME, organism-based; settings: in vivo, read-out: Bioavailabiility
[37] = Half life after intravenous administration of 1 mg/kg; format: ADME, organism-based, Canis lupus familiaris; set-up: dose 1 mg/kg, route intravenous; settings: dog, in vivo
[38] = Area under concentration time curve after 30 mg/kg of oral dose in rat; format: ADME, organism-based; set-up: dose 30 mg/kg, route oral; settings: in vivo
[39] = Maximum plasma concentration after intravenous administration of 1 mg/kg in dog; format: ADME, organism-based, Canis lupus familiaris; set-up: dose 1 mg/kg, route intravenous
[40] = Area under concentration time curve after 3 mg/kg […] in rat; format: ADME, organism-based; set-up: dose 3 mg/kg; settings: in vivo
[41] = Maximum plasma concentration after oral administration of 10 mg/kg in dog; format: ADME, organism-based, Canis lupus familiaris; set-up: dose 10 mg/kg, route oral
[42] = Maximum plasma concentration after intravenous administration of 3 mg/kg in rat; format: ADME, organism-based; set-up: dose 3 mg/kg, route intravenous
[43] = Half life after oral administration of 10 mg/kg; format: ADME, organism-based, Canis lupus familiaris; set-up: dose 10 mg/kg, route oral; settings: dog, in vivo
[44] = test system: Mus musculus; experiment: Mean day of survival after intraperitoneal administration of 75 mg/kg in mice; format: functional

Chain of Fibroblast growth factor receptor 2 (P21802 whole entry): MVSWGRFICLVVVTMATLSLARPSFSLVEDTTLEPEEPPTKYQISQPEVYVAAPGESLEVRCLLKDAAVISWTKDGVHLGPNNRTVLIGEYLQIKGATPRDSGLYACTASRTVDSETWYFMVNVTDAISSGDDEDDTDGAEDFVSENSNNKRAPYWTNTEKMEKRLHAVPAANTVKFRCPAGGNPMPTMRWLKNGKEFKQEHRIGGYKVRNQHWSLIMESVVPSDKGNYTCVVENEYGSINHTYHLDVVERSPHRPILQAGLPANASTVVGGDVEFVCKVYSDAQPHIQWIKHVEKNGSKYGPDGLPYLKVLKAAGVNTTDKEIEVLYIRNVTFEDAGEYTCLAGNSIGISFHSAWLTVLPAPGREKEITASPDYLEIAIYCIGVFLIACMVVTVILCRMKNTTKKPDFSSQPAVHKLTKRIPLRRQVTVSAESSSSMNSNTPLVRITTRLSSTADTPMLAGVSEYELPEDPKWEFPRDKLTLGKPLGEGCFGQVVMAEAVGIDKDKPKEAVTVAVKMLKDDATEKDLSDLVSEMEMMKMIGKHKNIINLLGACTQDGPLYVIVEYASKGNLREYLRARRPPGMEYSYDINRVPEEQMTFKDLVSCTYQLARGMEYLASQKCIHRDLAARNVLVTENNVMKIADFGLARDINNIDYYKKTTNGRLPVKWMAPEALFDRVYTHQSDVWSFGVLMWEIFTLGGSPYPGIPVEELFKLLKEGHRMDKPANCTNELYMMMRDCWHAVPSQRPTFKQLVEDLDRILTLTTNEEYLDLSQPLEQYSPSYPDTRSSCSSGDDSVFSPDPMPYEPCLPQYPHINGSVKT
Chain of Protein kinase C beta type (P05771 whole entry): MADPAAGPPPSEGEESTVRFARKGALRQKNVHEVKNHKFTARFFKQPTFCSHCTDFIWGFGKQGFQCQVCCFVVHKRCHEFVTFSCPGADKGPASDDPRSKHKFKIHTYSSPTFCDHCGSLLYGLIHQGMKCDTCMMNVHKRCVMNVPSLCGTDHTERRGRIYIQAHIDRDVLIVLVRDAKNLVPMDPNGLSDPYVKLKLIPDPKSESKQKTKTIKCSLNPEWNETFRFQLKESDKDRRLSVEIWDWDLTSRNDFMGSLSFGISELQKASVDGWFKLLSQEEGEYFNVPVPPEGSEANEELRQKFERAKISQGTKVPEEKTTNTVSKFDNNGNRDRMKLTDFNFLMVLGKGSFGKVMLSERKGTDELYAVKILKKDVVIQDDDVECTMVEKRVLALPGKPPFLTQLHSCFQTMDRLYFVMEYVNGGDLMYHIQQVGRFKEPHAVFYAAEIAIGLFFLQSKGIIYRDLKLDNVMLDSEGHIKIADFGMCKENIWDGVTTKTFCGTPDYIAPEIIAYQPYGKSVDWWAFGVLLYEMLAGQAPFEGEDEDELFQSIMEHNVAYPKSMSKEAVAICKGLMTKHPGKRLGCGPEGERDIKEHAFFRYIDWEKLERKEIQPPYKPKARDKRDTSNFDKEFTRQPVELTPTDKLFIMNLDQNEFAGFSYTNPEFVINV
Chain of Casein kinase II (P67870 whole entry): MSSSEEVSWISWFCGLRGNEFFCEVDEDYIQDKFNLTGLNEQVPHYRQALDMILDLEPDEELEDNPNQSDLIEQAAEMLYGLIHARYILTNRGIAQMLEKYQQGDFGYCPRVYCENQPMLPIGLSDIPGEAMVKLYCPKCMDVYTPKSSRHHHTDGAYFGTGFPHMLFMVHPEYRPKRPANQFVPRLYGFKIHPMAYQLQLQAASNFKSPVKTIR
Chain of Casein kinase II (P68400 whole entry): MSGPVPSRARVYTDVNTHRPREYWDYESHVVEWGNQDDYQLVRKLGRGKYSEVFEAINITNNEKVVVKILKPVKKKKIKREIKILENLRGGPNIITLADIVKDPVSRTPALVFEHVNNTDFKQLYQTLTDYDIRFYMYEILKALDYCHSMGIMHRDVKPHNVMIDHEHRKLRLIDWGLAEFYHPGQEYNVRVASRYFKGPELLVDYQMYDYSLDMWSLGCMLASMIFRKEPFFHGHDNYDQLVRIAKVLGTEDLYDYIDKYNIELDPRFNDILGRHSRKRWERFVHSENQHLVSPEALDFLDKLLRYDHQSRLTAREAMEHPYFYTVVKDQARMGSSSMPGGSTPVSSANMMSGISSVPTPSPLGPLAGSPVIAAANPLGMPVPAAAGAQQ
Chain of Casein kinase II (P19784 whole entry): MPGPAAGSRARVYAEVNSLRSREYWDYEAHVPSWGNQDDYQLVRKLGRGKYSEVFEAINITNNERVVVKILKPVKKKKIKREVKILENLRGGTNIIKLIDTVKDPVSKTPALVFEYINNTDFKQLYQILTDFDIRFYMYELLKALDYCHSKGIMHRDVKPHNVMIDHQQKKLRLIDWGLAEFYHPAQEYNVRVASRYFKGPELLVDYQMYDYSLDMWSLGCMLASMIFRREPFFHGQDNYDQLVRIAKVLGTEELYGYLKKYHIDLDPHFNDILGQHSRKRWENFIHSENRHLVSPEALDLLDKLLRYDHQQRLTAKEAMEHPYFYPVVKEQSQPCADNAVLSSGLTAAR
Chain of Cyclin-dependent kinase 4/cyclin D1 (P11802 whole entry): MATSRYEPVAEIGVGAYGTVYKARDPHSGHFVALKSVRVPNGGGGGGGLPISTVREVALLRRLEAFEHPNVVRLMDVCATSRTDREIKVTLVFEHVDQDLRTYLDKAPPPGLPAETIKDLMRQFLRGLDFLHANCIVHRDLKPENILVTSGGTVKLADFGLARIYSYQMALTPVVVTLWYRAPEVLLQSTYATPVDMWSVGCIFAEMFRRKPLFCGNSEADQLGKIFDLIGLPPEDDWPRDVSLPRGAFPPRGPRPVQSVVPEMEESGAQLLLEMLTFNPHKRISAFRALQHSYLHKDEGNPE
Chain of Cyclin-dependent kinase 4/cyclin D1 (P24385 whole entry, further chain): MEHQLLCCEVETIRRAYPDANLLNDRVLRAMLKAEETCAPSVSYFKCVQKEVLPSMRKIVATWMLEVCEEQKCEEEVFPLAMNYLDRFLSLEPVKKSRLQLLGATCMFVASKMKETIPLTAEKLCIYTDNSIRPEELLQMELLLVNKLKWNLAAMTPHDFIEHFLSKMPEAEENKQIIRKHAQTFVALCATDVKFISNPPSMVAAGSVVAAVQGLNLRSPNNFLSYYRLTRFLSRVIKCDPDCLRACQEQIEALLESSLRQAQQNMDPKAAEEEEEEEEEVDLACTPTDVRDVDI
Chain of Vascular endothelial growth factor receptor 2 (P35968 whole entry): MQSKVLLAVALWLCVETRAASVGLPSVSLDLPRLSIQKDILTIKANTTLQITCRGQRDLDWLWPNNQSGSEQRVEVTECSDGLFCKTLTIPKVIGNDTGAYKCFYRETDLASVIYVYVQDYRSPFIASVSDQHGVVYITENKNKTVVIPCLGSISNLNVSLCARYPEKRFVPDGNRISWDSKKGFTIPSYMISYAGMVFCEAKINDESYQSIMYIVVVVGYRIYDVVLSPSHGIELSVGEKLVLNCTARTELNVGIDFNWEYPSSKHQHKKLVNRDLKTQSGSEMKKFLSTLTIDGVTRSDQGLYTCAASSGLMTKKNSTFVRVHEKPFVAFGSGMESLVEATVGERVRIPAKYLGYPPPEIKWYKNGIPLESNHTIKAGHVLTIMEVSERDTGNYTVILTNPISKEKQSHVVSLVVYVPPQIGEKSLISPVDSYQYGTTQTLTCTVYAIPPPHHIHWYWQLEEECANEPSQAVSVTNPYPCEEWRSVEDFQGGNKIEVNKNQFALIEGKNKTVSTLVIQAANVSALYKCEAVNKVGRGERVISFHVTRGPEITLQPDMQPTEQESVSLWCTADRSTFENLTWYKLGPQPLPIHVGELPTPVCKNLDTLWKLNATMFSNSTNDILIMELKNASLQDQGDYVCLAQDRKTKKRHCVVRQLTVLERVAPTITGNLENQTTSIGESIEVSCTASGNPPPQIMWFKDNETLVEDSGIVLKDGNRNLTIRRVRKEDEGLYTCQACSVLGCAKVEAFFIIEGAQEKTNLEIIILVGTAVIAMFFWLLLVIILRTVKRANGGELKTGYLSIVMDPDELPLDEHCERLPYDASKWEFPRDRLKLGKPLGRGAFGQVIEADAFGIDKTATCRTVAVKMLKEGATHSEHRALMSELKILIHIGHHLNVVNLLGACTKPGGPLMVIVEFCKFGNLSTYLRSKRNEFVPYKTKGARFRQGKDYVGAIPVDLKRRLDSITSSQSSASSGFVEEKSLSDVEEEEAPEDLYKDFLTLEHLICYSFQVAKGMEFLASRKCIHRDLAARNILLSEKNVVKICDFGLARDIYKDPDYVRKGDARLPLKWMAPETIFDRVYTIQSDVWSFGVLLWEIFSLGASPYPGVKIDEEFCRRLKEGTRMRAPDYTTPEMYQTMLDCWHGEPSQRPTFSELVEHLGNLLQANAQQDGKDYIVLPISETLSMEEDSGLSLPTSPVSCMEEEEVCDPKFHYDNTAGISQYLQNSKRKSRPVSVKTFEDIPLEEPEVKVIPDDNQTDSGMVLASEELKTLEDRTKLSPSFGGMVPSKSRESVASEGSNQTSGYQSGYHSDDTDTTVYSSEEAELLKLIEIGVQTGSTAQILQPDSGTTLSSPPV

pIC50 [1]: < 4.00
Structure (SMILES): Nc1nc(Nc2ccc(S(N)(=O)=O)cc2)nn1Cc1c(F)cccc1F

Structure (SMILES): Cc1cc(C)c(C(=O)n2nc(Nc3ccc(S(N)(=O)=O)cc3)nc2N)s1
pIC50 [2]: 7.43 | pIC50 [3]: 6.57 | pIC50 [4]: 7.14 | pIC50 [5]: 6.77

pIC50 [1]: 6.18
Structure (SMILES): N[n+]1nc(Nc2ccc(S(N)(=O)=O)cc2)nn1S(=O)(=O)c1c(F)cccc1F

pIC50 [3]: 5.39 | pIC50 [4]: 4.55 | pIC50 [1]: 5.68 | pIC50 [6]: < 5.00
Structure (SMILES): Cc1ccc(F)c(C(=O)n2nc(N)nc2Nc2ccc(S(N)(=O)=O)cc2)c1F

pIC50 [4]: 6.85 | pIC50 [1]: 6.89
Structure (SMILES): CN(C)CCNS(=O)(=O)c1ccc(Nc2nc(N)n(C(=O)c3c(F)cccc3F)n2)cc1

pIC50 [2]: 6.80 | pIC50 [7]: 6.12 | pIC50 [3]: 5.72 | pIC50 [4]: 6.26 | pIC50 [8]: 6.14 | pIC50 [6]: 5.59
Structure (SMILES): Nc1nc(Nc2ccc(S(N)(=O)=O)cc2)nn1C(=O)c1cccs1

Structure (SMILES): Nc1nc(Nc2ccc(S(N)(=O)=O)cc2)nn1C(=S)Nc1c(F)cccc1F
pIC50 [3]: 7.70 | pIC50 [4]: 7.46 | pIC50 [9]: < 4.00 | pIC50 [6]: 7.04 | pIC50 [10]: 5.80

pIC50 [2]: 6.43 | pIC50 [3]: 6.68 | pIC50 [4]: 6.59 | pIC50 [11]: 6.03 | pIC50 [8]: 5.68
Structure (SMILES): Nc1nc(Nc2ccc(S(N)(=O)=O)cc2)nn1C(=O)c1sccc1F

Structure (SMILES): Cc1ccsc1C(=O)n1nc(Nc2ccc(S(N)(=O)=O)cc2)nc1N
pIC50 [2]: 6.96 | pIC50 [12]: 9.40 | pIC50 [13]: 6.92 | pIC50 [3]: 6.89 | pIC50 [4]: 7.04 | pIC50 [14]: 6.74 | pIC50 [15]: < 4.00 | pIC50 [16]: < 4.00 | pIC50 [9]: < 4.00 | IC50 [17]: 26 nM | pIC50 [6]: 6.60 | pIC50 [10]: 6.51

Cmax [18]: 330 nM | bioavailability [19]: 20.6% | pIC50 [2]: 6.80 | IC50 [20]: > 100000 nM | pIC50 [12]: 9.52 | pIC50 [21]: < 4.00 | pIC50 [13]: 6.72 | IC50 [22]: 9500 nM | pIC50 [3]: 6.06 | IC50 [23]: > 100000 nM | pIC50 [4]: 6.43 | AUC [24]: 0.55 µM·h | AUC [25]: 0.27 µM·h | pIC50 [26]: 6.29 | Cmax [27]: 430 nM | pIC50 [14]: 6.57 | pIC50 [15]: < 4.00 | half-life [28]: 2.29 h | pIC50 [8]: 6.66 | pIC50 [1]: 8.10 and 8.52 | pIC50 [16]: < 4.00 | pIC50 [9]: < 4.00 | half-life [29]: 1.94 h | IC50 [17]: 31 nM
Structure (SMILES): Cc1ccc(F)c(C(=O)n2nc(Nc3ccc(S(N)(=O)=O)cc3)nc2C)c1F
pIC50 [10]: 4.97

pIC50 [3]: 6.04 | pIC50 [4]: 6.89 | pIC50 [6]: 6.01
Structure (SMILES): Nc1nc(Nc2ccc(S(N)(=O)=O)cc2)n(C(=S)c2c(F)cccc2F)n1

pIC50 [30]: 5.43 | pIC50 [3]: 5.33 | pIC50 [6]: 4.32
Structure (SMILES): Nc1nc(Nc2ccc(S(N)(=O)=O)cc2)nn1C(=O)Nc1c(F)cccc1F

pIC50 [4]: 6.66 | pIC50 [8]: 5.80 | pIC50 [1]: 8.49
Structure (SMILES): Cc1nc(Nc2ccc(S(N)(=O)=O)cc2)nn1C(=O)c1c(F)ccc(F)c1F

Structure (SMILES): Nc1nc(Nc2ccc(S(N)(=O)=O)cc2)nn1C(=O)c1c(F)cccc1F [JNJ-7706621]
bioavailability [31]: 63.3% | Cmax [18]: 6400 nM | bioavailability [19]: 2% | AUC [32]: 15.5 µM·h | AUC [33]: 2.45 µM·h | pIC50 [2]: 6.92 | Cmax [34]: 2500 nM | pIC50 [21]: < 4.00 | Mean day survival [35]: 50.1 days | pIC50 [7]: 6.23 | bioavailability [36]: 8% | half-life [37]: 3.89 h | AUC [24]: 0.74 µM·h | AUC [38]: 9.5 µM·h | AUC [25]: 3.2 µM·h | Cmax [39]: 2190 nM | AUC [40]: 11.4 µM·h | Cmax [41]: 4580 nM | Cmax [27]: 210 nM | Cmax [42]: 23200 nM | pIC50 [14]: 6.66 | pIC50 [15]: 4.52 | T1/2 [28]: 2.2 h and 1.7 h | pIC50 [8]: 6.12 | pIC50 [16]: < 4.00 | T1/2 [29]: 0.64 h | half-life [29]: 0.51 h | half-life [43]: 2.36 h | Mean day survival [44]: 48.5 days
